Source: BindingDB's records for doi:10.7270/Q2ZG6QP2 (Nmmlsc, 2010)

Molecular target: T1, Integrin alpha-4 (Homo sapiens, UniProt P13612)
T1 sequence (P13612 whole entry): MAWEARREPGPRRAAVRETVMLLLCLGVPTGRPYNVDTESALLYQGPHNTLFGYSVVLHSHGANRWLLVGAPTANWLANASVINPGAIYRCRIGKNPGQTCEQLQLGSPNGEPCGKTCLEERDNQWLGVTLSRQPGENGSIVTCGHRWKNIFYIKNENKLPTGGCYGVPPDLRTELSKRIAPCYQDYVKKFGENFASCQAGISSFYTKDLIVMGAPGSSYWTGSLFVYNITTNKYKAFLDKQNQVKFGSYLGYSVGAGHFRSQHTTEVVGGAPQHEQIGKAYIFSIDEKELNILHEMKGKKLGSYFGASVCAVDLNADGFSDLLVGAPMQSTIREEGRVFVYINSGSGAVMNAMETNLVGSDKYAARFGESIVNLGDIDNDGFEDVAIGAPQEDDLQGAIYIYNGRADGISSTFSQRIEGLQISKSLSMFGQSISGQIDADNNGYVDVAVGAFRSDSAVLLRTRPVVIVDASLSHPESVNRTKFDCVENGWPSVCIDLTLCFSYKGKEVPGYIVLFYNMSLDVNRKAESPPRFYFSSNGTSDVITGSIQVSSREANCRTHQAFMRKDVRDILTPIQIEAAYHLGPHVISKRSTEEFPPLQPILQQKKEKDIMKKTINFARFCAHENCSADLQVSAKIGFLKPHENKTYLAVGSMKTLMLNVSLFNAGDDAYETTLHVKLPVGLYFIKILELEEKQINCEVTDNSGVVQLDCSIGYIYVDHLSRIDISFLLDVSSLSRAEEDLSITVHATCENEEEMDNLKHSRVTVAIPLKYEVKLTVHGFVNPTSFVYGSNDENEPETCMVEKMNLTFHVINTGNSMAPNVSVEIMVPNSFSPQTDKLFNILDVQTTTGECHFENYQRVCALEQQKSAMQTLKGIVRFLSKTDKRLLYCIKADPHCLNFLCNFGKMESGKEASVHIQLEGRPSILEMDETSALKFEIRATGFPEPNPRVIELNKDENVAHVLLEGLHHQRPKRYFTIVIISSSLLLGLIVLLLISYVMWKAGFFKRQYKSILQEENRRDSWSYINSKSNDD
Assay: VLA-4 allosteric modulator potency, dose response, cell-based, U937, HUTS-21 LIBS antibody, flow cytometry (AID 449766)

[1] = inactive by the depositor's call

| Structure (SMILES) | EC50 [1] [µM] | EC50 [µM] |
| --- | --- | --- |
| CC1(C)C[C@H]2C=C(C=O)[C@]3(C=O)C[C@]3(C)[C@H]2C1 | 3.15 |  |
| COc1cccc(-c2sc3ccccc3c2-c2ccc(OCCN3CCCC3)cc2)c1 |  | > 30 |
| COc1cccc(-c2sc3ccccc3c2-c2ccc(OCCN(C)C)cc2)c1 |  | 12.4 |
| c1ccc(-c2sc3ccccc3c2-c2ccc(OCCN3CCCC3)cc2)cc1 [1-[2-[4-(2-phenyl-1-benzothiophen-3-yl)phenoxy]ethyl]pyrrolidine] |  | 14.8 |
| COC(=O)C1CN(C#N)N(c2ccc(Cl)cc2)C12c1ccccc1-c1ccccc12 (configuration not stated) [2'-(4-chlorophenyl)-1'-cyano-4'-spiro[fluorene-9,3'-pyrazolidine]carboxylic acid methyl ester] |  | 6.71 |
| C[S+]([O-])c1nc(-c2ccc(Br)cc2)cc(-c2ccccc2)c1C#N (configuration not stated) [6-(4-bromophenyl)-2-(methylsulfinyl)-4-phenylnicotinonitrile] |  | 2.67 |
| COC(=O)[C@@H]1[C@@H](C(=O)OC)C2(c3ccccc3-c3ccccc32)N(c2ccc(Cl)cc2)N1C#N [(3'S,4'R)-1'-(4-chlorophenyl)-2'-cyanospiro[fluorene-9,5'-pyrazolidine]-3',4'-dicarboxylic acid dimethyl ester] |  | > 30 |
| CC(NC(=O)/C(C#N)=C/c1ccc(Cl)c([N+](=O)[O-])c1)c1ccccc1 (configuration not stated) [(E)-3-(4-chloro-3-nitrophenyl)-2-cyano-N-(1-phenylethyl)prop-2-enamide] |  | 0.95 |
| CCOCCCNC(=O)/C(C#N)=C/c1ccc(Cl)c([N+](=O)[O-])c1 [(E)-3-(4-chloro-3-nitrophenyl)-2-cyano-N-(3-ethoxypropyl)-2-propenamide] |  | 3.59 |
| COc1ccc(C(=O)c2cc([N+](=O)[O-])ccc2N2CCOCC2)cc1 [MLS000663963] |  | > 30 |
| C=C1C(O)[C@@H]2O[C@]3(CC[C@H](/C=C/C(C)[C@@H]4CC(C)=CC5(O[C@H](C[C@@](C)(O)CO)CCC5O)O4)O3)CC[C@H]2O[C@@H]1C(O)CC(C)[C@H]1OC2(CCCCO2)CCC1C (some centres not stated) [MLS002320507] |  | 0.61 |
| C=C(C=O)C[C@@H]1C[C@H](O)C2OC3C[C@]4(C)OC5/C=C\CC6OC7C(CC=CCC6OC5CCCC4OC3CC2O1)OC1CC2OC3CC(=O)OC3C[C@@H](C)C[C@@]2(C)OC1C[C@@H]7C (some centres not stated) [MLS002320514] |  | 2.15 |
| COc1ccc(-c2sc3ccccc3c2-c2ccc(OCCN(C)C)cc2)cc1 [MLS002473632] |  | > 30 |
| Cc1ccc(NC(=O)c2cc(N3C(=O)C=CC3=O)ccc2N2CCOCC2)cc1Cl [N-(3-chloro-4-methylphenyl)-5-(2,5-dioxo-2,5-dihydro-1H-pyrrol-1-yl)-2-(4-morpholinyl)benzamide] |  | 5.5 |
| O=C(COc1ccc(C=NNC(=O)c2cc3ccccc3o2)cc1Cl)Nc1ccccc1 [SMR000160815] |  | > 30 |
| FC(F)(F)c1nnc(-c2ccccc2)nc1Sc1ccc(Cl)cc1 [SMR000180067] | 0.73 |  |
| CCOC(=O)COc1ccccc1/C=C\[N+](=O)[O-] [SMR000204386] |  | 2.45 |
| COc1cccc(-c2sc3ccc(OC)cc3c2-c2ccc(OCCN(C)C)cc2)c1 [SMR001397780] | 0.22 |  |
| CN(C)CCOc1ccc(-c2c(-c3ccccc3)sc3ccccc23)cc1 [SMR001397792] |  | > 30 |
| COc1cccc(-c2sc3ccccc3c2-c2ccc(OCCN3CCCCC3)cc2)c1 [SMR001397793] | 5.46 |  |
| CCOC(=O)C(=Cc1ccc(OC(F)F)cc1)C1=Nn2c(nnc2-c2ccc(Cl)cc2)SC1 [ethyl (Z)-2-[3-(4-chlorophenyl)-7H-[1,2,4]triazolo[3,4-b][1,3,4]thiadiazin-6-yl]-3-[4-(difluoromethoxy)phenyl]prop-2-enoate] |  | 7.79 |
| COC(=O)C[C@]1(C(=O)OC)CN(C#N)N(c2ccc(Cl)cc2)C12c1ccccc1-c1ccccc12 [methyl 1-(4-chlorophenyl)-2-cyano-4-(2-methoxy-2-oxoethyl)spiro[pyrazolidine-5,9'-(9'H)-fluorene]-4-carboxylate] |  | > 30 |
